Test results reported in US10968260B2, “Curcumin-peptide conjugates and formulations thereof” (HAUS BIOCEUTICALS, INC., priority 2014, dated 2021).

Experiments:
[1] = design: species or system mice; conditions: mouse, in vivo
Experimental: Mice weighed ˜25 g each. Blood was drawn every 30 minutes for 180 total minutes.

[2] = tested on: advanced Alzheimer's disease; experiment: Clinical case study: Alzheimer's disease (Example 5); type: in vivo, human; conditions: Case 20, 1.2 g curcumin bid, after 30 days
Description: A person was presented with advanced Alzheimer's disease. Prior to dosing, they failed all short term memory questions on a test. […] They have continued to have lasting benefit from the therapy.

absorbability / bioavailability [1]: very poor absorbability
SMILES: COc1cc(C=CC(=O)CC(=O)C=Cc2ccc(O)c(OC)c2)ccc1O [curcumin, 1,7-bis[4-hydroxy-3-methoxyphenyl]-1,6-heptadiene-3,5-dione]
short term memory questions on a test, advanced Alzheimer's disease [2]: passed all short term memory questions
